Data on 13 compounds can be found in patent US8129538B1, “Renin inhibitors” (Takeda Pharmaceutical Company Limited, priority 2007, dated 2012).

Structures are written as SMILES.

This experiment addresses T1, Recombinant human renin (Homo sapiens, UniProt P00797).
T1 construct: isolate the active form (residues 67-406); made in house
T1 sequence (P00797 67-406): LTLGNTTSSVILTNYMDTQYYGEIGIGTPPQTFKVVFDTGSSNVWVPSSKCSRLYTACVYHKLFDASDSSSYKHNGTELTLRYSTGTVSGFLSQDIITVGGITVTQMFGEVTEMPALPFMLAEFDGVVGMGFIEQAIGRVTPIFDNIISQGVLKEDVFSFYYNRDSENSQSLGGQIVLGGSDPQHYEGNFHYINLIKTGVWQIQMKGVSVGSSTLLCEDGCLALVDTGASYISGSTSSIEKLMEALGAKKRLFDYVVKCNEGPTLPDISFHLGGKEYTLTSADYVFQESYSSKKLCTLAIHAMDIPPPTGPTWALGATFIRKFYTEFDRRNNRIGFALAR
Nature of the experiment: In vitro enzymatic activity assay of renin inhibitors (fluorogenic peptide substrate). Format: biochemical. The settings on record: recombinant human renin 3 nM, substrate 1 μM, 37° C., pH 7.4, fluorescence; read-out: IC50 of Exemplified Compounds Against Renin. An excerpt: Test compounds in varying concentrations may be reacted with recombinant human renin in the presence of substrate, e.g., QXL520-γ-Abu-Ile-His-Pro-Phe-His-Leu-Val-Ile-His-Thr-Lys (HiLyteFluo488)-Arg-OH (Anaspec, San Jose, Calif.). The reaction can be followed kinetically using fluorescence (excitation λ=485 nm; emission λ=538 nm) Inhibition constants (IC50) may be calculated by non-linear curve fitting of the compound concentrations and fluorescence intensities to the standard IC50 equation.
Solutions of test compounds in varying concentrations (≦2 mM final concentration) are prepared in dimethyl sulfoxide (DMSO) and then diluted into assay buffer comprising 50 mM Hepes, 1 mM EDTA, 1 mM DTT, 0.1 mg/mL BSA, 0.01% Brij35, pH 7.4. Alternatively, the assay can be performed with a high BSA concentration, wherein the buffer contains an additional 2% BSA.
Recombinant human renin (3 nM final concentration) is added to the dilutions and pre-incubated with the compounds for 10 minutes at 37° C. As described in Examples A-C above, human renin can be obtained by expressing preprorenin (residue 1-406) in mammalian cells, treating the prorenin (residues 24-406) contained in the culture supernatant with trypsin, and isolate the active form (residues 67-406). After pre-incubation, the reaction is initiated with 1 μM of substrate QXL520-γ-Abu-Ile-His-Pro-Phe-His-Leu-Val-Ile-His-Thr-Lys (HiLyteFluo488)-Arg-OH (Anaspec, San Jose, Calif.). The final DMSO in the assay is 5%. The total volume of the reaction mixture is 20 μL, which can be placed on Greiner 384-well small volume plates.
Renin activity may be determined via fluorescence (excitation λ=485 nm; emission λ=538 nm), e.g., on a Molecular Devices SPECTROmax GEMINI XPS. The fluorescence
intensity is determined upon the addition of substrate and determined again after incubation at 37° C. for one hour. The fluorescence intensity of a blank (no inhibition) using vehicle alone is also determined. Renin activity is linearly proportional to the change in fluorescence observed (final-initial).
The percent inhibition of renin at a given compound concentration is defined as: 100%×[1−(Fcompound/Fblank)] where Fcompound is the observed fluorescence at a given concentration of test compound and Fblank is the observed fluorescence in the presence of vehicle alone.
The pIC50 value (negative log of the molar concentration of the compound that produces 50% inhibition) of a test compound is calculated by non-linear least squares curve fitting of the equation: Percent Inhibition=100%/(1+(10−pIC50/10 log [I])) to percent inhibition versus compound concentration. The 50% inhibitory concentration (IC50) of a test compound is calculated by raising 10 to the negative pIC50 (10-pIC50).
By IC50 is commonly meant the concentration needed to halve the response being measured. As to `O=C(C1=C(c2cccc(-c3ccccc3)c2)CCNC1CO)N(Cc1cccc(Cl)c1Cl)C1CC1` (stereo not shown) [Compound 1, 4-(biphenyl-3-yl)-N-cyclopropyl-N-(2,3-dichlorobenzyl)-2-(hydroxymethyl)-1,2,5,6-tetrahydropyridine-3-carboxamide], the IC50 is > 1000 nM.
`O=C(C1=C(c2ccc(OCCOc3ccccc3Cl)cc2)CCNC1CO)N(Cc1cccc(Cl)c1Cl)C1CC1` (stereo not shown) [Compound 2, 4-(4-(2-(2-chlorophenoxy)ethoxy)phenyl)-N-cyclopropyl-N-(2,3-dichlorobenzyl)-2-(hydroxymethyl)-1,2,5,6-tetrahydropyridine-3-carboxamide]: the IC50 is > 1000 nM.
`COCOC[C@H]1NCCC(c2cccc(-c3ccccc3)c2)=C1C(=O)N(Cc1cccc(Cl)c1Cl)C1CC1` [Compound 4, (S)-4-(biphenyl-3-yl)-N-cyclopropyl-N-(2,3-dichlorobenzyl)-2-((methoxymethoxy)methyl)-1,2,5,6-tetrahydropyridine-3-carboxamide]: the IC50 is 100 to 1000 nM.
As for `COCOC[C@H]1NCCC(c2ccc(OCCOc3c(Cl)cccc3Cl)cc2)=C1C(=O)N(Cc1cccc(Cl)c1Cl)C1CC1` [Compound 5, (S)-N-cyclopropyl-N-(2,3-dichlorobenzyl)-4-(4-(2-(2,6-dichlorophenoxy)ethoxy)phenyl)-2-((methoxymethoxy)methyl)-1,2,5,6-tetrahydropyridine-3-carboxamide], the figure is < 100 nM; as for `O=C(C1=C(c2ccc(OCCOc3c(Cl)cccc3Cl)cc2)CCN[C@@H]1CO)N(Cc1cccc(Cl)c1Cl)C1CC1` [Compound 6, (S)-N-cyclopropyl-N-(2,3-dichlorobenzyl)-4-(4-(2-(2,6-dichlorophenoxy)ethoxy)phenyl)-2-(hydroxymethyl)-1,2,5,6-tetrahydropyridine-3-carboxamide], < 100 nM; as for `Cc1cccc(C)c1OCCOc1ccc(C2=C(C(=O)N(Cc3cccc(Cl)c3Cl)C3CC3)[C@@H](CO)NCC2)cc1` [Compound 7, (S)-N-cyclopropyl-N-(2,3-dichlorobenzyl)-4-(4-(2-(2,6-dimethylphenoxy)ethoxy)phenyl)-2-(hydroxymethyl)-1,2,5,6-tetrahydropyridine-3-carboxamide], < 100 nM.
Consider `COCOC[C@H]1NCCC(c2ccc(OCCOc3c(C)cccc3C)cc2)=C1C(=O)N(Cc1cccc(Cl)c1Cl)C1CC1` [Compound 8, (S)-N-cyclopropyl-N-(2,3-dichlorobenzyl)-4-(4-(2-(2,6-dimethylphenoxy)ethoxy)phenyl)-2-((methoxymethoxy)methyl)-1,2,5,6-tetrahydropyridine-3-carboxamide], for which the half-inhibitory concentration (IC50) was < 100 nM.
The result for `Cc1cc(Cl)c(OCCOc2ccc(C3=C(C(=O)N(Cc4cccc(Cl)c4Cl)C4CC4)[C@@H](CO)NCC3)cc2)c(Cl)c1` [Compound 9, (S)-N-cyclopropyl-4-(4-(2-(2,6-dichloro-4-methylphenoxy)ethoxy)phenyl)-N-(2,3-dichlorobenzyl)-2-(hydroxymethyl)-1,2,5,6-tetrahydropyridine-3-carboxamide] reads < 100 nM.
In the case of `COCOC[C@H]1NCCC(c2ccc(OCCOc3c(Cl)cc(C)cc3Cl)cc2)=C1C(=O)N(Cc1cccc(Cl)c1Cl)C1CC1` [Compound 10, (S)-N-cyclopropyl-4-(4-(2-(2,6-dichloro-4-methylphenoxy)ethoxy)phenyl)-N-(2,3-dichlorobenzyl)-2-((methoxymethoxy)methyl)-1,2,5,6-tetrahydropyridine-3-carboxamide], the IC50 is < 100 nM.
`O=C(C1=C(c2ccc(OCCOc3c(F)ccc(F)c3Cl)cc2)CCN[C@@H]1CO)N(Cc1cccc(Cl)c1Cl)C1CC1` [Compound 11, (S)-4-(4-(2-(2-chloro-3,6-difluorophenoxy)ethoxy)phenyl)-N-cyclopropyl-N-(2,3-dichlorobenzyl)-2-(hydroxymethyl)-1,2,5,6-tetrahydropyridine-3-carboxamide]: the IC50 was < 100 nM.
As for `O=C(C1=C(c2ccc(O)cc2)CCN[C@@H]1CO)N(Cc1cccc(Cl)c1Cl)C1CC1` [Compound 12, (S)-N-cyclopropyl-N-(2,3-dichlorobenzyl)-2-(hydroxymethyl)-4-(4-hydroxyphenyl)-1,2,5,6-tetrahydropyridine-3-carboxamide], the IC50 was > 1000 nM.
For the compound `COc1ccc(C2=C(C(=O)N(Cc3cccc(Cl)c3Cl)C3CC3)[C@@H](CO)NCC2)cc1` [Compound 13, (S)-N-cyclopropyl-N-(2,3-dichlorobenzyl)-2-(hydroxymethyl)-4-(4-methoxyphenyl)-1,2,5,6-tetrahydropyridine-3-carboxamide], the IC50 is > 1000 nM.
For the compound `NC[C@H]1NCCC(c2ccc(OCCOc3c(Cl)cccc3Cl)cc2)=C1C(=O)N(Cc1cccc(Cl)c1Cl)C1CC1` [Compound 14, (S)-2-(aminomethyl)-N-cyclopropyl-N-(2,3-dichlorobenzyl)-4-(4-(2-(2,6-dichlorophenoxy)ethoxy)phenyl)-1,2,5,6-tetrahydropyridine-3-carboxamide], the IC50 lay in the range of 100 to 1000 nM.
